As a reminder, the IC50 is the concentration at which inhibition is half-maximal.

Calls of active or inactive are those of the source.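 Rule for the calls: active = maximal inhibition of the USP30 enzyme reaching 30% or more across the dose series; inactive = the rest.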

This note sets out measurements from PubChem BioAssay AID1645865 (Buhrlage Lab, Dana-Farber Cancer Institute and Novartis …, 2021).

The target in this assay is Ubiquitin carboxyl-terminal hydrolase 30 (Homo sapiens) (UniProt Q70CQ3). Kind of assay: inhibitors of ubiquitin-specific protease 30 deubiquitylating enzyme, concentration dependence, in vitro biochemical, validation of primary hits (AID 1645865). The conditions noted are these: purified USP30, Ub-rhodamine cleavage, fluorescence, 2 h.
Sequence of Ubiquitin carboxyl-terminal hydrolase 30 (Homo sapiens) (Q70CQ3 whole entry, looked up): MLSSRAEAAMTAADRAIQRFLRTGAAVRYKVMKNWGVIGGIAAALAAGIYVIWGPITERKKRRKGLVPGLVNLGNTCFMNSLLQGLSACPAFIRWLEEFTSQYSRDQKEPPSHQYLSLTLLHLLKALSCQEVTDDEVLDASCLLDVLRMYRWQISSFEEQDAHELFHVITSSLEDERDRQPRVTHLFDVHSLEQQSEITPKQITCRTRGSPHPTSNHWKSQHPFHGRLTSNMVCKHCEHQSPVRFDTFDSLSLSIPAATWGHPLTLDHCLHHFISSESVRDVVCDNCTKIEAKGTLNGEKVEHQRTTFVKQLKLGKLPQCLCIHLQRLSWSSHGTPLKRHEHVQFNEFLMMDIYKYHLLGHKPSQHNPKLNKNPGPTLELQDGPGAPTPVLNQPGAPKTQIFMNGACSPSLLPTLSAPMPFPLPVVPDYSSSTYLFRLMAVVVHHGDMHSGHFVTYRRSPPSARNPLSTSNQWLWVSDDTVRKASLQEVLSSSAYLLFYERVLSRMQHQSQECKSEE
For the molecule `CN1CCN(c2ncnc3c2oc2ccc(Cl)cc23)CC1`, the IC50 was > 50 µM (inactive).
For the molecule `CCCCCC(=O)N1c2ccccc2NC2=C(C(=O)CC(c3ccc(C(C)(C)C)cc3)C2)C1c1ccncc1` (centres undefined), the IC50 was 2.28 µM.
Under `COc1cc(Cl)ccc1Nc1ncc(C(=O)Nc2cc(OC)c(OC)c(OC)c2)c2ccccc12` stands less than 0.05 µM; under `O=C(c1cc2ccccc2o1)N1CC=C(c2ccccc2)CC1`, > 50 µM (inactive).
On to `CC(C)CC(=O)Nc1cc(F)c2nc(N3CCOCC3)ccc2c1`, for which the IC50 was > 50 µM (inactive).
Under `O=C(CN(Cc1ccc(Cl)cc1)S(=O)(=O)c1ccc(Cl)cc1)N1CCOCC1` stands > 50 µM (inactive); under `CC1OC2CC(O)C1(O)C1=C2C(=O)c2c(O)c3c(c(O)c2C1=O)[C@H](C)O[C@H]1CC(=O)O[C@@H]31` (some centres undefined), > 50 µM (inactive); under `COc1ccc(OCC(=O)Nc2ccc(C)c(OCc3cc(=O)n4ccccc4n3)c2)cc1`, 4.77 µM.
For the molecule `CC(C)(C)c1ccc(-c2nnc3n2-c2ccccc2SC3)cc1`, the IC50 was 19.1 µM.
On to `COc1ccc(C(=O)Nc2sc3c(c2C(=O)NCc2cccnc2)CCCC3)cc1`, for which the 50% inhibitory concentration (IC50) is 4.43 µM.
Take `N#C/C(=C\c1ccc(-c2cc(Cl)ccc2Cl)o1)c1nnc2n1CCCCC2`: the IC50 was > 50 µM (inactive).
On to `O=C(COc1ccc(Cl)cc1Cl)Nc1ccccc1-c1nc2ccccc2[nH]1`, for which the IC50 is 1.61 µM.
`O=C(Nc1ccc(Cl)cc1F)c1cc(-c2ccccn2)n[nH]1`: the IC50 was 0.445 µM.
Turning to `O=C(CCSc1ccc(Cl)cc1)c1cccs1`, the concentration for half-maximal inhibition (IC50) was 20.2 µM.
On to `COc1cc(Cl)ccc1C(=O)Nc1cccc(-n2cnnn2)c1C`, for which the IC50 was 10.2 µM.
Under `Cc1noc(NS(=O)(=O)c2ccc(NC(=O)CSc3ccc4ccccc4c3)cc2)c1C` stands > 50 µM (inactive); under `COc1ccc(-c2cc3nc([C@H](C)NC(=O)Cc4ccccc4C)nn3cn2)cc1`, 1.9 µM.
Take `CC(=O)N1Cc2ccccc2CC2(CCCN(CC3CCOCC3)C2)C1` (centres undefined): the IC50 is > 50 µM (inactive).
With `Cc1ccc(C(=O)NCc2ccc(C(=O)Nc3cccc(C)c3)o2)cc1`, the IC50 is 26.9 µM.
With `CC1=C(C)C(N(c2ccccc2)c2ccccc2)N(CCC(C)C)C1=O` (centres undefined), the concentration for half-maximal inhibition (IC50) is 36.1 µM.
For the molecule `COc1ccc(S(=O)(=O)N(C)Cc2cccs2)cc1OC`, the IC50 was > 50 µM (inactive).
Under `CC(=O)Nc1cc2cc(-n3cccc3)ccc2oc1=O` stands > 50 µM (inactive).
Next, `Cc1ccc(-n2cc3c(N4CCCC(C(=O)NCC5CCCCC5)C4)ncnc3n2)cc1` (centres undefined): 40.7 µM; `O=C(Nc1ccc2c(c1)OCCO2)C1CCN(C(=O)c2ccccc2)CC1`: > 50 µM (inactive); `N[C@@H](Cc1ccccc1)C(=O)N1CCC2(CC1)CN(C(=O)c1ccc(Cl)cc1)CCO2`: > 50 µM (inactive).
Next, `COc1ccccc1Nc1ncc(C(=O)NCCc2ccc(Cl)cc2)c2ccccc12`: 2.59 µM; `CC(=O)c1oc2nc3c(c(-c4ccc(Cl)cc4)c2c1N)CCc1ccccc1-3`: > 50 µM (inactive); `O=C(CC1C(=O)N(Cc2ccccc2)c2nc3ccccc3n21)NCCc1ccccc1` (centres undefined): 19.5 µM.
`COc1ccc(NC(=O)CC(=O)c2ccc([N+](=O)[O-])cc2)cc1S(=O)(=O)Nc1ccc(Br)cc1`: the IC50 is 33 µM.
For `O=C(c1cc(-c2ccncc2)n[nH]1)N1CCC(C(=O)N2CC=C(c3ccccc3)CC2)CC1`, the IC50 is 33.2 µM.
Next, `COc1ccc(C(C(=O)NC2CCCCC2)N(C(=O)CCCC(=O)Nc2ccccn2)c2ccccc2C)cc1` (centres undefined): 19.3 µM.
Consider `Cn1c(C(=O)NCc2ccccn2)cc2c(=O)[nH]c3ccccc3c21`, for which the IC50 was > 50 µM (inactive).
Next, `Cc1nnc(C(=O)Nc2ccc(C(=O)NCc3ccccc3C)cc2)s1`: 26.8 µM; `Cn1cc2cccc(NC(=O)c3ccc(F)cc3)c2n1`: > 50 µM (inactive); `O=C(Nc1ccc(F)cc1F)c1csc(-c2ccccc2)n1`: 22.6 µM.
Regarding `COc1cccc(OCCCn2c(C(C)NC(=O)c3ccco3)nc3ccccc32)c1` (centres undefined), the IC50 was 34.8 µM.
Regarding `NC(=O)Cn1c(=O)n(Cc2ccc(C(=O)NC3CCCC3)cc2)c(=O)c2ccccc21`, the IC50 was > 50 µM (inactive).
As to `O=c1[nH]c2ccc(S(=O)(=O)Nc3ccc(O)c4ccccc34)cc2[nH]1`, the IC50 is > 50 µM (inactive).
In the case of `CCc1ccc(-n2c(=O)c3ccccc3n(CC(=O)NCCC3=CCCCC3)c2=O)cc1`, the IC50 was 6.68 µM.
Next, `Cc1ccccc1C(=O)c1ccc(C(=O)NC2CCCCCC2)[nH]1`: 2.41 µM; `Cc1cc(C(F)(F)F)n2nc(C3CCN(C(=O)c4cnn(C)c4C)C3)cc2n1` (centres undefined): > 50 µM (inactive); `Cc1cc(NCC2CC2)n2nc(Nc3cc(Cl)ccc3C)nc2n1`: 23.6 µM.
For the molecule `CC(C)(C)OC(=O)N1CCN(C(=O)Cn2c(=O)nc(-c3ccccc3)c3ccccc32)CC1`, the IC50 is > 50 µM (inactive).
Regarding `O=C(CSc1nnc(Cn2cnc3ccccc32)o1)Nc1ccc([N+](=O)[O-])cc1`, the half-inhibitory concentration (IC50) was 19.3 µM.
As for `COc1ccc2cc1Oc1cc(ccc1OC)C(O)C13SSC4(C(=O)N1C)C(O)C1=COC=CC(OC2=O)C1N4C3=O` (centres undefined), the IC50 was 0.674 µM.
As to `Cc1ccc2c(c1C)NC(=O)[C@]21[C@@H]2C(=O)N(c3cc(Cl)ccc3Cl)C(=O)[C@@H]2[C@@H]2CCCN21`, the IC50 was > 50 µM (inactive).
On to `COc1cccc2c1OCC(C(=O)NCc1ccc(F)cc1)=C2`, for which the IC50 is > 50 µM (inactive).
As to `Cc1ccc(C)c(-n2c(N)c(C(=O)NCCc3ccccc3)c3nc4ccccc4nc32)c1`, the IC50 was > 50 µM (inactive).
With `CCOc1ccccc1NC(=O)Cn1c(-c2ccc3c(c2)OCO3)cn(-c2ccc(OC)cc2)c1=O`, the IC50 was > 50 µM (inactive).
For the molecule `CC(=O)c1cccc(NC(=O)c2ccc3[nH]c4c(c3c2)CC(C)CC4)c1` (centres undefined), the IC50 is > 50 µM (inactive).
Regarding `N#C/C(=C/c1sc(N2CCOCC2)nc1-c1ccccc1)c1ccccn1`, the IC50 was > 50 µM (inactive).
`CS(=O)(=O)c1ccc(NC(=O)C2CN(c3nc4c(F)cccc4s3)C2)cc1`: the half-maximal inhibitory concentration (IC50) is 31.1 µM.
On to `CS(=O)(=O)N1CCCc2cc(C(=O)Nc3ccc(Oc4ccccc4)cc3)ccc21`, for which the IC50 is > 50 µM (inactive).
Regarding `N#Cc1ccccc1Cn1c(=O)n(CCCCC(=O)NCCc2ccccc2)c(=O)c2ccccc21`, the IC50 was 14.4 µM.
Take `NC(=O)C1(N2CCCCC2)CCN(C(=O)c2[nH]nc3c2CCc2ccccc2-3)CC1`: the IC50 is > 50 µM (inactive).
As for `Cc1cc(C)n2nc(CNc3cccc(Cl)c3)nc2n1`, the IC50 was > 50 µM (inactive).
Next, `CC1=CC(=O)C(C2=C(O)C(=O)C(C)=CC2=O)=C(O)C1=O`: 36.2 µM; `Cc1nn(-c2cccc(F)c2)c2c1C(C(=O)c1ccc(Cl)s1)CC(=O)N2` (centres undefined): 32.5 µM; `O=C(CSc1ncnc2c1sc1cccc(F)c12)N1CCCCCC1`: > 50 µM (inactive).
Under `CCCCN(CC)c1ncnc2c1sc1nc(-c3ccco3)c3c(c12)CC(C)(C)OC3` stands > 50 µM (inactive); under `CCN1CCCC1CN(Cc1cc2cc(OC)ccc2[nH]c1=O)C(=O)NCc1ccccc1` (centres undefined), > 50 µM (inactive); under `COc1ccc(OC)c(-n2c(SCC(=O)N3CCc4ccccc43)nnc2-c2cccc(S(=O)(=O)N(C)C)c2)c1`, 3.12 µM.
`COc1ccc2ncc3c(-c4ccc(C)cc4)nn(-c4ccc(F)cc4)c3c2c1`: the half-inhibitory concentration (IC50) was 1.82 µM.
For the molecule `COC(=O)C1C(c2ccc(OC)cc2)C2(C(=O)c3ccccc3C2=O)C2C=Cc3ccccc3N12` (centres undefined), the IC50 is > 50 µM (inactive).
Regarding `CN(CCCNC(=O)c1cccc2c1SCCC2=O)c1ccccc1`, the IC50 was > 50 µM (inactive).
As for `O=C(c1ccc2ncccc2c1)N1CCC2(C1)Nc1cccnc1NC2=NC1CCCC1` (centres undefined), the IC50 is > 50 µM (inactive).
`Cn1ncc2c(=O)n(Cc3cccc(Cl)c3)cnc21`: the IC50 was > 50 µM (inactive).
In the case of `O=C(Nc1ccc2c(c1)N(C(=O)C1CCCC1)CC2)c1c(F)cccc1F`, the IC50 is 24.2 µM.
In the case of `Cc1oc(C2CC2)cc1C(=O)N1CCC2(CC1)CC1(CO2)Nc2ccccc2-n2cccc21` (centres undefined), the IC50 is > 50 µM (inactive).
As for `COC1/C=C/OC2(C)Oc3c(C)c(O)c4c(c3C2=O)C(=O)C=C(NC(=O)/C(C)=C\C=C\C(C)C(O)C(C)C(O)C(C)C(OC(C)=O)C1C)C4=O` (centres undefined), the IC50 is > 50 µM (inactive).
Take `Cc1cc(Cl)c2c(c1)[C@]1(C(=O)N2)N2CCC[C@H]2[C@@H](C(=O)c2cc3ccccc3o2)[C@]12C(=O)Nc1ccccc12`: the IC50 was > 50 µM (inactive).
On to `CSc1cccc(NC(=O)COc2cccc3ccccc23)c1`, for which the IC50 was 1.46 µM.
Under `CCc1nc(N2CCCC2=O)sc1C(=O)Nc1cccc(C(C)=O)c1` stands > 50 µM (inactive).
Regarding `Cc1cc(CSc2ncccc2C(=O)Nc2ccnn2Cc2cccnc2)no1`, the IC50 was > 50 µM (inactive).
In the case of `CNC(=O)c1cc2nc(N(C)C)n(-c3ccc(F)cc3)c2s1`, the IC50 was > 50 µM (inactive).
In the case of `Cc1ccc(C)c(S(=O)(=O)N2CCN(c3ccc4nnc(-c5ccco5)n4n3)CC2)c1`, the IC50 was > 50 µM (inactive).
As to `O=C(Nc1cccc(F)c1)c1ncoc1-c1ccco1`, the IC50 was > 50 µM (inactive).
Next, `CC(c1ccccc1)n1c(-c2ccc(F)cc2)nc2c(c(=O)c3ccccc3n2C)c1=O` (centres undefined): 2.06 µM.
Turning to `CN(C)S(=O)(=O)N1CCCC2(C1)Nc1cccnc1NC2=NC1CCCC1` (centres undefined), the IC50 is > 50 µM (inactive).
Next, `Cn1cc(-c2cnc(-c3cccc(F)c3)nc2)cc1C(=O)NCc1cccnc1`: 30.7 µM.
On to `Cc1nc(-c2ccc(NC(=O)N3CCN(c4ccccn4)CC3)cc2)no1`, for which the IC50 is > 50 µM (inactive).
On to `COc1cc(-c2ccno2)ccc1S(=O)(=O)Nc1ccccc1Cl`, for which the IC50 is > 50 µM (inactive).
Under `Cc1ccccc1-c1nc(CN(C)S(=O)(=O)c2ccccc2)c(C)o1` stands 35.8 µM; under `Cc1cc(O)c(=O)cc2c1C[C@H]1CC(C)(C)/C=C/C[C@@]3(C)Oc4cc(=O)c(O)cc(C)c4C[C@@H]3C[C@H](O)[C@]1(C)O2`, > 50 µM (inactive).
